# Experimental data as given in US6998249B1, “Toxicity screening method” (priority 1999, dated 2006).
# Where two headings read alike, the source gives them in different places.
# Legend:
# H4IIE cells [1] = assay: Cluster Analysis Toxicity Screening (CATS), combined cell number, GST, MTT and ATP assays; type: cell-based
# Text: (§1) The test compounds were received pre-weighed into glass vials. The preparation of 20 millimolar stock solutions was accomplished by adding a sufficient amount of dimethylsulfoxide (DMSO) directly into the vials. These stocks were used to prepare 200 micromolar stock solutions in DMSO. Both the 20 millimolar and 200 micromolar, stocks were used to prepare dosing solutions of 0.05, 0.1, 1.0, 5.0, 10.0, 20.0, 50.0, 100, and 300 micromolar in culture media with a final DMSO concentration of 0.5%. The stocks and dosing solutions were prepared on the day prior to dosing. The solutions were wrapped in foil and stored at 4° C. until the next morning.
# (§2) Negative controls of media plus DMSO (0.5%) were included with and without cells. A digitonin (1 mM) treated group was included as a positive control for complete cell death.
# (§3) Rat hepatoma derived H4IIE cells were used as the test system. The cells were obtained from ATCC (# CRL-1548) and subcultured in the laboratory. The culture medium used for these cells was Eagle's Minimum Essential Medium (MEM) with 10% Fetal Bovine Serum (FBS) and 10% calf serum. Certified FBS and calf serum were from Gibco Life Technologies.
# (§4) 96-well plates were seeded with […] in 200 microliters of media 48 hour prior to dosing. On the morning of the third day after seeding, the test compounds were added to the plates in a 200 microliter volume of medium (DMSO=0.5%).
# (§5) In this Example, ketoconazole was used as the test drug. Rat hepatoma cells were seeded into 96-well culture plates and allowed to establish growth for 48 hours. Following this growth phase, the cells were treated with 0, 0.05, 0.1, 1, 5, 10, 20, 50, 100, and 300 micromolar of ketoconazole in growth medium and 0.5% DMSO. […]
# [2] = as above; type: cell-based; conditions: rat, 24 hour exposure
# Text: as §1, §2, §3, §4, §5
# H4IIE cells [3] = assay: Cell proliferation (CYQUANT) cell number assay; type: cell-based, rat
# Method: Cell number in each well was determined with the CYQUANT® cell proliferation kit from Molecular Probes. This assay is based on a DNA-specific binding dye that fluoresces upon interaction with DNA. Conversion to cell number is achieved by comparing sample fluorescence units to a standard curve based on fluorescence units/cell. The assay was performed essentially as described by the manufacturer with the following exceptions: The digitonin (1 mM) or Triton X 100 (1%) was added to the lysis buffer. The lysis buffer was added to the plates immediately after removing the plates from the −80° C. freezer. The plates were shaken for 20 min prior to reading the fluorescence.
# Cell number was determined by establishing a calibration curve. In order to obtain fluorescence units (FU) per cell 1×10^6 cells were placed in a tube and centrifuged to a pellet. The pellet was then resuspended in 1 milliliters of a cell lysis buffer containing the DNA binding dye. Thus, one million cells in 1000 milliliters yields a relationship of 1000 cells per microliter of suspension. This provides FU/cell. Cell number for samples was determined by applying the FU obtained to the calibration curve. The percent change relative to controls was determined by dividing the treatment cell number by the control cell number and multiplying by 100.
# [4] = MTT mitochondrial function assay; type: cell-based, rat; conditions: rat, H4IIE rat hepatoma cells; 24 hour exposure; read-out: TC50 for MTT
# Method: (§6) (3-(4,5-dimethylthiazol-2-yl)-2,5-diphenyl-tetrazolium bromide (MTT). After the media was removed from a plate for GST analysis, the cells remaining in each well were evaluated for their ability to reduce the tetrazolium dye to formazan via mitochondrial dehydrogenase activity. An MTT stock solution was prepared in Earl's Buffered Salt Solution (EBSS) to a final concentration of 5.0 mg/ml. This stock was diluted 10-fold with complete media (0.5 mg/ml) just prior to use and warmed to 37° C. in a water bath. In some instances the MTT powder may be added directly to complete medium to give a final concentration of 0.5-mg/ml. Once the media was removed from all wells 200 microliter, of the 0.5 mg/ml MTT solution was added to each well and the plate was allowed to incubate at 37° C. for 3-4 hours. Color development is linear over this time.
# (§7) After the 3-4 hour incubation, all media was removed and the purple formazan product was extracted by adding 200 microliters, of anhydrous isopropanol. The plates were covered with foil and placed on an orbital shaker for 30 min at room temperature. Each well was aspirated with a multi-channel pipette to insure solubilization of the formzan dye and then the plate was centrifuged at 3000 rpms in a Beckman Allegra 6R centrifuge equipped with a GH3.8 rotor to remove insoluble cellular debris. Analyses were performed by transferring 100 microliters, of supernatant to a clean 96-well plate and then reading the sample absorbance at 570 nm and the reference absorbance at 650 nm with a Packard scanning spectrophotometer.
# (§8) At the end of the 24 hour exposure period the media was removed and the remaining attached cells were assayed for mitochondrial function. […] Percent control values were determined by dividing the mean absorbance of the treatment group by the mean absorbance of the control group and multiplying by 100.
# H4IIE cells [5] = assay: MTT mitochondrial function assay; type: cell-based, rat
# Method: as §6, §7, §8
# H4IIE cells [6] = assay: ATP assay (ATP-Lite); type: cell-based, rat
# Method: Cellular Adenosine triphosphate (ATP) was determined with the ATP-Lite kit from Packard Instruments according to the manufacturer's instructions. This assay is based on a reaction between ATP+D-luciferin+oxygen catalyzed by luciferase to yield Oxyluciferin+AMP+PPi+CO2+light. The emitted light is proportional to the amount of ATP present. Rather than a “flash” type signal which has a very short half-life, this assay utilizes a “glow” technology that extends the signal half-life to 5 hours. In addition, a unique cell lysis reagent inhibits endogenous ATPases and therefore stabilizes cellular ATP by preventing its degradation to ADP.. ATP is present in all living cells and declines rapidly upon cell death. In addition, this assay in combination with the MTT assay provides an indicator of mitochondrial activity and the energy status of the cell.
# Changes in ATP may be expressed as a percent change relative to controls by dividing the mean treatment luminescence values by the control values and multiplying by 100. An actual amount of ATP can also be determined by including an ATP calibration curve in the assay and then converting the luminescence response to an ATP concentration with the regression coefficients. Finally, it is possible to estimate the amount of ATP produced per cell, by dividing the pmol ATP data by cell number. Typically, cells try to maintain a stable level of ATP and therefore this parameter is not routinely calculated unless information on the stability of the ATP pool is desired.
# H4IIE cells [7] = conditions: rat, 24 h
# Method: (§9) Measurements of A-GST leakage from cultured cells into the media can be used to assess membrane integrity. This assay is specific for the alpha form of GST that exists at high concentrations in the cytosol of hepatocytes. An ELISA kit purchased from Biotrin Inc. was used to measure GST.
# (§10) On the morning after dosing the cells (approximately 24 hours) the media covering the cells in each well was removed and placed into new 96-well plates with appropriate labeling. These media plates were stored at −80° C. until needed for analysis.
# (§11) Leakage of the GST enzyme is determined by collecting the media in which the cells were exposed to the test compound at the end of the 24 hour exposure period. Thus, GST values represent total GST lost over the exposure period. The control for 100% dead or maximum GST release is based on cells treated with 1 mM digitonin at T0. Percent dead cells relative to digitonin treated cells was determined and then subtracted from 100 to yield the percent live cells.
# liver [8] = conditions: rats; cited from earlier work
# liver [9] = conditions: humans; cited from earlier work
# isolated mitochondria = conditions: cited from earlier work
# H4IIE cells [10] = assay: Glutathione S-transferase (GST) leakage assay (membrane integrity); conditions: 6 hour exposure
# Method: as §9, §10, §11
smiles,measurement,setting,value
"C[S+](C)[O-] [DMSO, dimethylsulfoxide]","concentrations with no effects on cell proliferation, MTT and GST",H4IIE cells [1]; rat,below 2%
C[C@@H]1[C@H](O)[C@@H](C)/C=C/C=C/C=C/C=C/C=C/C=C/C=C/[C@H](O[C@@H]2O[C@H](C)[C@@H](O)[C@H](N)[C@@H]2O)C[C@@H]2O[C@](O)(C[C@@H](O)C[C@@H](O)[C@H](O)CC[C@@H](O)C[C@@H](O)CC(=O)O[C@H]1C)C[C@H](O)[C@H]2C(=O)O [amphotericin],influence of final DMSO concentration on toxicity,H4IIE cells [1],No significant differences in toxicity
O=C(N[C@H](CO)[C@H](O)c1ccc([N+](=O)[O-])cc1)C(Cl)Cl [chloramphenical],change of TC50 with exposure time,"H4IIE cells [1]; time course over a 72 hour exposure period, H4IIE cells",largest shift in TC50 values occurred between 24 and 48 hours
CC(=O)N1CCN(c2ccc(OCC3COC(Cn4ccnc4)(c4ccc(Cl)cc4Cl)O3)cc2)CC1 (centres unmarked) [ketoconazole],CC50 at 24 h,"[2]; cell number, ATP, GST, read-out: TC50 for all other endpoints (than MTT)",> 100 µM
same,CC50 at 24 h,"[2]; H4IIE cells, all parameters, read-out: TC50 values",≥ 50 µM
same,CC50 at 24 h,"[2]; H4IIE cells, cell number, GST leakage, MTT, ATP, read-out: TC50, all parameters measured",≥ 50 µM
same,influence of final DMSO concentration on toxicity,H4IIE cells [1],No significant differences in toxicity
same,"Ctox, estimated plasma concentration that would produce toxicity","H4IIE cells [1]; rat, 24 h",20 µM
same,change of TC50 with exposure time,"H4IIE cells [1]; rat, 72 h",largest shift in TC50 values occurred between 24 and 48 hours
same,effect on cell number,H4IIE cells [3]; 24 hour exposure,dose-related reduction in cell number
same,CC50 at 24 h,[4],70 µM
same,concentration of early toxic effects in MTT assay,H4IIE cells [5]; 24 hour exposure,below 20 micromolar
same,effect on MTT,H4IIE cells [5]; 24 hour exposure,reduced
same,effect on ATP,H4IIE cells [6],reduced
same,concentration of early toxic effects in ATP assay,"H4IIE cells [6]; rat, 24 h",below 20 micromolar
same,concentrations at which not toxic to cells by GST leakage,H4IIE cells [7],below 300 micromolar
same,sustained plasma concentration producing hepatic damage,liver [8],60 µM
same,sustained plasma concentration resulting in liver toxicity,liver [9],30 µM
same,effect on State III respiration,isolated mitochondria,direct inhibition
CC[C@H]1/C=C/C=C/C[C@@H](C)[C@H](O)[C@@](C)(O)C(=O)[C@@H](C)[C@H](O)[C@@H](C)C(=O)[C@@H](C)[C@H](O)[C@@H](C)/C=C/C(=O)O[C@@H]2[C@H](C)[C@H](CC1)O[C@]1(CC[C@H](C)[C@H](C[C@@H](C)O)O1)[C@H]2C [oligomycin],effect on cell number,H4IIE cells [3]; 6 hour exposure,unaffected
same,effect on MTT,H4IIE cells [5]; 6 hour exposure,significantly reduced
same,effect on ATP,H4IIE cells [6]; 6 hour exposure,completely depleted
same,effect on GST leakage,H4IIE cells [10],unaffected
